According to article PMC6755085, “Cyclic oligoadenylate signalling mediates Mycobacterium tuberculosis CRISPR defence” (Nucleic Acids Research, 2019):

Biological target: T1, TsuCsx1 (Thioalkalivibrio sulfidiphilus, UniProt B8GSI1)
T1 construct: gene Tgr7_1803; full-length; N-terminal His8 fusion (pEV5HisTEV), no tag cleavage described; synthetic gene; E. coli C43; dimer
Assay: activation of cleavage of […]-labelled RNA, denaturing PAGE
Type: biochemical
Settings: synthetic cA4, 1 µM; 0.5 µM TsuCsx1 dimer; 20 mM Tris-HCl, 150 mM NaCl, 1 mM DTT, pH 7.5; 35 °C; activator

T1 sequence (B8GSI1 entry or part of it): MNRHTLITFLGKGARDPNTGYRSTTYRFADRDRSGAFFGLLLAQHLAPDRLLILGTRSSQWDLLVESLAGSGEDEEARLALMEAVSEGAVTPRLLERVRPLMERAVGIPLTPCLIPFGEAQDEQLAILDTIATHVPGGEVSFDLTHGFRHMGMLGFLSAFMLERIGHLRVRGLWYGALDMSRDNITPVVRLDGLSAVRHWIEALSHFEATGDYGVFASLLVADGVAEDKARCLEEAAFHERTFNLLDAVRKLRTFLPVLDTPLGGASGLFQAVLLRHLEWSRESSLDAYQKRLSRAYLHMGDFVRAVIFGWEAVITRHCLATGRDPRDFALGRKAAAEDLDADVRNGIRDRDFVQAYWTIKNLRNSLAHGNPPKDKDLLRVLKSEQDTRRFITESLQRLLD

## Nc1ncnc2c1ncn2[C@@H]1O[C@@H]2COP(=O)(O)O[C@H]3[C@@H](O)[C@H](n4cnc5c(N)ncnc54)O[C@@H]3COP(=O)(O)O[C@H]3[C@@H](O)[C@H](n4cnc5c(N)ncnc54)O[C@@H]3COP(=O)(O)O[C@H]3[C@@H](O)[C@H](n4cnc5c(N)ncnc54)O[C@@H]3COP(=O)(O)O[C@H]2[C@H]1O [cA4]
  activation of cleavage of 32P-labelled RNA, denaturing PAGE: TsuCsx1 was strongly activated by synthetic cA4 but not by cA6
